From a melting point compilation (Tetko et al.) come the findings set out here.

What is called melting point is the temperature of the solid-liquid transition. Regarding `O=C(O)c1cccc(-c2ccsc2)c1`, the melting point lay within 177 to 179 °C.
With `CC1(C)[C@H](C(=O)OC(C#N)c2cccc(Oc3ccccc3)c2)[C@@H]1C=C(Cl)Cl` (stereo partly drawn) the figure was 79 °C; with `CCOC(CN)OCC`, -78 °C.
With `Cc1cc(C(F)(F)F)n2nc(N)c(/N=N/c3ccc(Cl)cc3Cl)c2n1` the figure was 210 °C; with `N#Cc1ccnc(F)c1`, 32 °C.
`CC1=NN(c2ccccc2)C(=O)/C1=C\c1cccc(/C=C2\C(=O)N(c3ccccc3)N=C2C)c1` registered a melting point of 220 °C.
With `COP(=S)(OC)SCC(=O)N(c1ccc(Cl)cc1)C(C)C` the figure was 51 °C; with `COc1ccc(-c2nc(CCl)no2)cc1`, 60 to 62 °C.
With `O=C(C(=O)c1ccc2ccccc2c1)c1ccccc1` the figure was 87 °C; with `N#CCSc1nc(=O)[nH]c2c1CCCC2`, 223 to 225 °C; with `O=C1NC(=O)C([N+](=O)[O-])C(=O)N1`, 180 °C.
With `O=[N+]([O-])c1ccc(O)c(-c2cc([N+](=O)[O-])ccc2O)c1` the figure was 186 °C; with `NNC(=O)c1cccnc1`, 162 °C; with `O=C1C(=O)C(Cl)=C(Cl)C(Cl)=C1Cl`, 125 to 129 °C.
For the compound `CCOc1ccc(-c2nnc3n2NC(c2ccc([N+](=O)[O-])cc2)S3)cc1` (stereo not drawn), the melting point is 98 °C.
Then `N#CCSc1ccc(F)cc1`, with 34 °C.
Then `OCCC(F)(F)C(F)(F)C(F)(F)C(F)(F)C(F)(F)C(F)(F)C(F)(F)C(F)(F)C(F)(F)C(F)(F)F`, with 92.7 °C.
Turning to `O=S(=O)(Cl)c1cccc2ccccc12`, the melting point was 68 °C.
With `O=C(O)C12CC3CC(CC(O)(C3)C1)C2` the figure was 205 °C; with `C1=CC2=CC=C(O2)C2=CC=C(C=CC3=CC=C(O3)C3=CC=C1O3)O2`, 270 to 271 °C; with `Cc1c(C#N)cccc1C#N`, 136 °C.
Then `Cc1cccc([N+](=O)[O-])c1O`, with 70 °C; and `CC(=O)c1cccc(S(=O)(=O)Cl)c1`, with 43 °C; and `CC(=O)OC1CC2C3CCC(C(C)CCCC(C)C)C3(C)CCC2C2(C)CCC(=O)CC12O` (stereo not drawn), with 161 °C.
Turning to `CC(C)=CCCC(C)C1=C(O)C(=O)C(C)=CC1=O` (stereo not drawn), the melting point turned out to be 104 °C.
In turn, `CC(=O)Oc1cc(C(C)C)c(OCCN(C)C)cc1C` registered a melting point of 144 °C.
With `O=C(C=NO)Nc1cc(Cl)ccc1Cl` the figure was 198 to 201 °C; with `CCCCCOC(C)=O`, -70.8 °C.
With `C=C1C(C)CCC2(C)C3=C(C(=O)C4(CC4C)C(O)C3=O)C(OC(C)=O)C(O)C12` (stereo not drawn) the figure was 195 to 196 °C; with `O=[N+]([O-])c1ncccc1O`, 71 °C; with `CCOC(=O)C(O)(c1ccc(N)c(OC)c1)C(F)(F)F` (stereo not drawn), 97 to 99 °C.
Then `CC(CCC(=O)O)n1nnc2ccccc21` (stereo not drawn), with 86 °C; and `COc1ccc(Cl)cc1C`, with 34 °C; and `Cc1nc(-c2cc(C(=O)Cl)no2)cs1`, with 89 to 91 °C.
As for `CCOC(=O)c1sc2sc(C(=O)OCC)c(N=C3SCCS3)c2c1N=C1SCCS1`, the melting point was 198 °C.
On to `O=C(Oc1c(F)c(F)c(F)c(F)c1F)c1ccc(OC2CCOCC2)cc1`, for which the melting point was in the range of 111 to 114 °C.
With `CC1CC2=CC(=O)CCC2(C)C2CCC3(C)C(CCC3(C)O)C12` (stereo not drawn) the figure was 164 °C; with `Cc1ccc(S(=O)(=O)Nc2ccccc2C)cc1`, 110 °C; with `CNc1nnc(C(F)(F)F)s1`, 115 to 117 °C.
On to `Cc1ccccc1C=Cc1ccccc1C`, for which the melting point came to 83 °C.
With `C(=C/c1ccc(/N=C/c2ccccc2)cc1)/c1ccc(/N=C/c2ccccc2)cc1` the figure was 104 °C.
Then `CC(C)(C)c1cc(N)c(C(N)=O)s1`, with 146 to 148 °C; and `COc1ccc(C=O)cc1Br`, with 51 °C.
`Cc1cc(C#N)ccc1F` yielded a melting point of 55 °C.
`C[Si](C)(C)Oc1ccccc1` displayed a melting point of -55 °C.
Then `O=C(O)C1C(C(=O)O)C2(Cl)C(Cl)=C(Cl)C1(Cl)C2(Cl)Cl` (stereo not drawn), with 209 °C; and `CSC(SC)=C(C#N)C(=O)c1cccc(C(F)(F)F)c1`, with 60 °C; and `OCc1cn2ccsc2n1`, with 154 to 155 °C.
With `Cc1nc(C(F)(F)F)c(C(=O)Nc2c(Br)cc(OC(F)(F)F)cc2Br)s1` the figure was 178 °C; with `CC(C)CCCC(C)C1CCC2C3CC=C4CC(OC(=O)Cc5ccc(N(CCCl)CCCl)cc5)CCC4(C)C3CCC12C` (stereo not drawn), 90 °C; with `COc1ccc(C(C)=NO)cc1`, 80 °C.
With `CC(=CNNc1nc(C)cc(C)n1)c1ccncc1` the figure was 214 to 216 °C; with `CCOC(=O)c1cccc(O)c1`, 74 °C.
Take `COc1ccccc1N/N=C1\C(=O)N(CN2CCCCC2)N=C1C`: the melting point was determined as 148 °C.
Then `CCCOc1ccc([N+](=O)[O-])cc1NC(C)=O`, with 102 °C; and `Nc1cc(C(F)(F)F)ccc1Cl`, with 10 °C; and `NNC(=S)NC1CCCCC1`, with 142 to 145 °C.
With `O=C(Nc1ccccc1)OC1CCCCCC1OC(=O)Nc1ccccc1` (stereo not drawn) the figure was 217 to 219 °C; with `CCOC(=O)N1CCN(C(=O)OCC)CC1`, 47 °C.
With `CC1=C(C(=O)Nc2ccccc2)S(=O)(=O)CCO1` the figure was 120 °C; with `CC1(C)OC(=O)C(=Cc2ccccc2F)C(=O)O1`, 142 °C; with `O=[N+]([O-])c1ccc(N=Nc2ccc(N(CCO)CCO)cc2Cl)cc1`, 190 °C.
As to `Sc1nnc2ccccn12`, the melting point is 213 to 214 °C.
Then `O=C(CCl)NCO`, with 100 °C.
Then `O=C(O)Cc1ccc([N+](=O)[O-])cc1`, with 154 °C; and `NC(=O)C(Cc1ccc([N+](=O)[O-])cc1)c1ccccc1` (stereo not drawn), with 176 °C; and `Cc1nc([N+](=O)[O-])cn1C(C)C`, with 86 °C.
With `O=c1c(O)c(-c2ccc(O)c(O)c2)oc2cc(OC3OC(CO)C(O)C(O)C3O)cc(O)c12` (stereo not drawn) the figure was 248 °C; with `Cc1noc(C)c1CO`, 76 to 77 °C; with `O=C(O)CC[C@H]1CC[C@H](CCC(=O)O)C1=O`, 121 °C.
In turn, `O=c1[nH]cc(Br)c(=O)[nH]1` had a melting point of 310 °C.
With `COC(=O)CCC(C)C1CCC2C3C(=O)C(Br)C4CCCCC4(C)C3CCC12C` (stereo not drawn) the figure was 123 to 124 °C.
Then `Cc1nsc(N)n1`, with 202 to 209 °C.
Consider `CNC(=S)NCc1ccccc1`, for which the melting point was determined as 75 °C.
With `C=CCOCC(CC)(CO)CO` the figure was -10 °C.
Then `Cc1ccc(S(=O)(=O)c2ncsc2SCC(N)=O)cc1`, with 204 to 206 °C; and `O=C(Nc1ccccc1)C(Cl)(Cl)Cl`, with 96 °C; and `CCN(CC)c1ccc(/C=C2\CC/C(=C\c3ccc(N(CC)CC)cc3)C2=O)cc1`, with 186 to 189 °C.
Then `ClC1=C(Cl)C2(Cl)C3C(c4ccccc4C4C3C3(Cl)C(Cl)=C(Cl)C4(Cl)C3(Cl)Cl)C1(Cl)C2(Cl)Cl` (stereo not drawn), with 217 to 220 °C; and `CCCCCSc1ncccc1C(=O)O`, with 118 to 120 °C.
Consider `Cc1cc(C)c2cnn(-c3ccccc3)c2n1`, for which the melting point was determined as 66 °C.
The compound `COc1cc(CCN(Cc2cccc(O)c2)C(=O)C(F)(F)F)ccc1O` had a melting point of 51 °C.
Then `FC(F)C(F)(F)F`, with -103 °C; and `C/C=C/C1Nn2c(nnc2-c2ccc([N+](=O)[O-])cc2)S1` (stereo not drawn), with 150 °C; and `CC12CCC(=O)C=C1CCC1C2CCC2(C)C(OCc3ccccc3)CCC12` (stereo not drawn), with 198 to 199 °C.
With `CBr` the figure was -93.7 °C.
Then `ClCc1ccc(OCc2ccccc2)c(OCc2ccccc2)c1`, with 41 to 44 °C; and `Fc1ccc(I)cn1`, with 32 °C; and `O=C(Nc1ccc([N+](=O)[O-])cc1)c1ccccc1`, with 198 °C.
Take `O=C(O)c1ccc([N+](=O)[O-])c(F)c1`: the melting point was found to be 175 °C.
With `COc1ccc(C=C2SC(=S)N(CN3CCCCC3)C2=O)cc1` the figure was 222 to 223 °C; with `c1cc(-c2csnn2)ccc1OCC1CO1` (stereo not drawn), 70 to 72 °C; with `COc1ccc(NN=C2C(=O)OC(C)(C)OC2=O)cc1`, 128 °C.
With `ClC1CCCC1` the figure was -50 °C; with `Fc1cc(Br)c(Br)cc1F`, 33 °C.
In turn, `OCc1cccc2c1OCCCO2` displayed a melting point of 47 to 48 °C.
With `Cc1cccc(Nc2ccccc2)c1` the figure was 30 °C; with `COc1ccc(NC(=O)C(C)=NNC(N)=S)cc1`, 234 °C; with `c1ccc(-c2nc(-c3ccccn3)nc(-c3ccccn3)n2)nc1`, 250 °C.
`Cc1ccc(Br)c(O)c1C(=O)O` displayed a melting point of 57 °C.
With `CC(C)CCCC(C)C1CC[C@@]2(C)C3=CCC4[C@H](C)[C@@H](O)CC[C@]4(C)C3=CC[C@]12C` (stereo partly drawn) the figure was 123 °C; with `CCCCCOC(=O)C1=C(C)NC(=O)NC1c1ccc2c(c1)OCO2` (stereo not drawn), 144 °C.
With `O=C(O)c1n[nH]c2ccc(Br)cc12` the figure was 290 to 292 °C; with `C=C1C(=O)C23C(OC(C)=O)CC4C(C)(C)CCCC4(COC(C)=O)C2C(OC(C)=O)CC1C3OC(C)=O` (stereo not drawn), 226 °C.
Then `BrCC1CO1` (stereo not drawn), with -40 °C; and `Clc1nccc(-c2cccs2)n1`, with 127 to 129 °C.
`CC1OC(C)OC(C)OC(C)O1` (stereo not drawn) registered a melting point of 246 °C.
With `Cc1ccc([C@H]2O[C@@H](c3ccc(C)cc3)[C@H](C)C(=O)[C@@H]2C)cc1` the figure was 140 °C.
